The text below walks through data of EP4810009A1, “MELANOGENESIS INHIBITOR AND EXTERNAL PREPARATION FOR SKIN CONTAINING SAME” (MITSUBISHI GAS CHEMICAL COMPANY, INC., priority 2023, dated 2025).

The test system of one data set is pig skin. Description: Chemical peeling ability. The settings on record: aqueous solution of 7% by weight of organic acid on pig skin for 24 hours; decrease of stratum corneum thickness. The procedure: An aqueous solution of 7% by weight of organic acid was allowed to act on to pig skin for 24 hours. If the thickness of the stratum corneum decreased by 10% or more, it was evaluated as A; if it decreased by less than 10%, it was evaluated as B.

The subject of data set [1] is Cutibacterium acnes NBRC 107605. The experiment in a line: Ability to eliminate acne bacteria. The format is cell-based. The conditions noted are these: 0.05 mL of aqueous solution of 7% by weight of organic acid added to 5 mL test solution; viable cell count after 60 seconds. As to the method: 0.05 mL of an aqueous solution of 7% by weight of organic acid was added dropwise to 5 mL of a test solution containing the bacterial strain Cutibacterium acnes NBRC 107605 at a concentration of 10^8 CFU/mL. After 60 seconds, if the viable cell count was less than 1%, it was evaluated as A; if the viable cell count was 1% or more, it was evaluated as B. [Table 10]

A short description of data set [2]: Solubility in oils (saturated solubility of oleic acid in organic acid solution). The format is physicochemical. The conditions noted are these: oleic acid in aqueous solution of 50% by weight of organic acid; room temperature (23°C), 24 hours. The procedure: Oleic acid was added into an aqueous solution of 50% by weight of organic acid, and the mixed solution was then stirred at room temperature (23°C) for 24 hours.

The nature of data set [3]: Solubility in oils and fats (saturated solubility of palmitic acid in organic acid solution). The format is physicochemical. The settings on record: palmitic acid in aqueous solution of 50% by weight of organic acid; room temperature (23°C), 24 hours. The procedure:
Palmitic acid was added into an aqueous solution of 50% by weight of organic acid, and the mixed solution was then stirred at room temperature (23°C) for 24 hours.

In data set [4] the test system is B16 melanoma. Description: Evaluation of melanin production inhibitory activity. In kind it is cell-based, mouse. The settings on record: 100 µM methyl lactic acid, pH 6.5 with NaOH; one day of culture; compared with kojic acid 1 mM positive control; Figure 1. The procedure: As melanin-producing cells, mouse-derived skin melanoma cells, B16 melanoma (JCRB0202, purchased from JCRB Cell Bank) were used. As a medium for cell culture, 500 mL of E-MEM medium was mixed with 5 mL of x 100 penicillin-streptomycin solution and 100 mL of inactivated fetal bovine serum (manufactured by West Bio), and the resulting medium was used. For the subculture of cells, the cells were washed with a phosphate buffer (manufactured by GIBCO), and were detached from the vessel with 0.25% trypsin and EDTA (ethylenediaminetetraacetic acid), followed by addition of a medium, and the obtained mixture was centrifugated to separate the cels. To ensure stable cell culture, the cell concentration was adjusted to 5 to 16 x 10^4 cells/mL, and the cells were then cultured in a 10-cm petri dish or a plastic culture flask (175 cm^2) in the presence of 5% carbon dioxide at 37°C. […] The absorbance at 450 nm was measured using a plate reader, and the melanin concentration was calculated. […] The melanin production percentage (%) shown in Figure 1 is a relative value (%) in a case where the melanin concentration in the negative control is taken as 100%, and for each case, it is an average value of the values measured for 12 samples.

The test system of data set [5] is B16 melanoma. The experiment in a line: Cytotoxicity test (Cell counting Kit 8). In kind it is cell-based, mouse. The settings on record: 100 µM methyl lactic acid, one day of culture, Figure 2. As to the method:
Cell culture was performed by the same method as that in Example 1 mentioned above.
The test sample was prepared by the same method as that in Example 1 mentioned above.
Cells were detached from the culture obtained under the cell culture conditions described in Example 1, and 0.1 mL of cells and medium were each seeded into a 96-well vessel to a cell concentration of 5 x 10^4 cells/mL. After one day of culture, the medium was removed and replaced with the test sample. After one further day of culture, the vessel was washed with an assay medium, and 0.1 mL each of a 1 : 9 mixed solution of Cell counting Kit 8 and medium was added. After the mixture had been left at rest at 37°C for 30 minutes in the presence of 5% carbon dioxide, the absorbance at 450 nm was measured using a plate reader, and the cell count was calculated.
The cell count (%) is a relative value (%) in a case where the cell count in the negative control (medium alone) is taken as 100%, and for each case, it is an average value of the values measured for 16 samples.
(In general: Tetrazolium assays rely on reduction of a dye to a coloured formazan, in cell work by metabolically active cells.)

For another data set, the system named is tyrosinase. Description: Tyrosinase biosynthesis inhibitory action test (DOPA-melanin per unit protein in cell lysate). The format is cell-based. The conditions noted are these: normal human melanocytes; 2.5, 5, 10, 20, and 40 mM; one day of culture; Figure 3. As to the method:
Normal human melanocytes (manufactured by Kurabo Industries, Ltd.) were used as melanin-producing cells. As a medium for the cells, Dermalife (manufactured by Kurabo Industries, Ltd.) was used. The cell concentration was adjusted to 3 x 10^4 cells/mL, and the cells were cultured in a 96-well plate in the presence of 5% carbon dioxide at 37°C for 24 hours.
(§1) As a test sample, NaOH was added to methyl lactic acid to adjust the pH to 6.5, and was used. […]. As a control, Dermalife, into which methyl lactic acid was not added, was used.
The medium was removed from the culture obtained under the aforementioned cell culture conditions and replaced with the test sample. After one day of culture, the medium was removed, and a phosphate buffer containing 0.5% Triton X-100 was added in an amount of 50 µL/well. The cells were lysed by agitation. 50 µL of the cell lysate was mixed with 50 µL of phosphate buffer containing 2 mM DOPA, and the obtained mixture was then incubated at 37°C for 2 hours. The absorbance (measurement wavelength: 405 nm, reference wavelength: 650 nm) was measured, and the amount of DOPA-melanin was calculated from a calibration curve. The amount of the protein was quantified using a BCA protein assay kit (Thermo), and the amount of DOPA-melanin per unit protein was then calculated to confirm tyrosinase biosynthesis inhibitory action. […]

The next data set has as its system tyrosinase protein. The experiment in a line: Tyrosinase protein expression inhibition test (Western blot). The format is cell-based. The settings on record: normal human melanocytes; 20 mM; 48 hours; Figure 4. As to the method:
Normal human melanocytes (manufactured by Kurabo Industries Ltd.) were used as melanin-producing cells. As a medium for the cells, Dermalife was used. The cell concentration was adjusted to 3 x 10^5 cells/1.5 mL, and the cells were cultured in a 6-well plate in the presence of 5% carbon dioxide at 37°C for 24 hours.
as §1
The medium was replaced with the test sample (1.5 mL/well) and cultured for 48 hours. After removing the medium, proteins were extracted using M-PER™ Mammalian Protein Extraction Reagent (manufactured by Themo), and were then developed by SDS-PAGE. After the resultant had been transferred onto a polyvinylidene difluoride (PVDF) membrane, the membrane was blocked with 5% skim milk. After a reaction had been performed with an anti-tyrosinase antibody (manufactured by Santa Cruz Biotechnology) for 1 hour, the membrane was further reacted with an HRP-conjugated secondary antibody (manufactured by abcam) for an additional 1 hour. Protein bands were detected using Ez West Blue W (manufactured by ATTO). The signal intensity of the resulting bands was detected using the image processing software ImageJ, and the relative protein expression levels were calculated. […]
A general note: In western blotting, separated proteins are transferred to a membrane and probed.

Another data set concerns tyrosinase mRNA. The experiment in a line: Evaluation of suppression of melanin synthesis-related factor mRNA expression (Real-time PCR). In kind it is cell-based. The conditions noted are these: normal human melanocytes; 10 and 20 mM; 24 hours; Figure 5. As to the method: Normal human melanocytes (manufactured by Kurabo Industries, Ltd.) were used as melanin-producing cells. As a medium for the cells, […] was used. The cell concentration was adjusted to 3 x 10^4 cells/mL, and the cells were cultured in a 96-well plate in the presence of 5% carbon dioxide at 37°C for 24 hours. As a test sample, NaOH was added to methyl lactic acid to adjust the pH to 6.5, and was used. […] As a control, […], into which methyl lactic acid was not added, was used. The medium was replaced with the test sample (100 μL/well) and cultured for 24 hours. After removing the medium, RNA was extracted using Cells-to-Ct kit (manufactured by Themo), and was then subjected to reverse transcription to synthesize cDNA. Using the resulting cDNA, Real-time PCR was carried out, and the relative expression level of mRNA was calculated. In Figure 5, "Control" is a negative control, which uses a medium without the test sample.
Background: Real-time PCR tracks product formation cycle by cycle.

Structures are written as SMILES.

With `O=C(O)CO` [Glvcolic acid], in the data set with pig skin, the Chemical peeling ability result is listed as “A (If the thickness of the stratum corneum decreased by 10% or more, it was evaluated as A)”. In addition, the “Ability to eliminate acne bacteria” value in data set [1] was “A (if the viable cell count was less than 1%, it was evaluated as A)”.
Consider `O=c1cc(CO)occ1O` [Kojic acid, reference compound], for which the Solubility in oils entry in data set [2] was “B (if it was less than 200 ppm, it was evaluated as B)”. In data set [3], the “Solubility in oils and fats” value was “B (if it was less than 20 ppm, it was evaluated as B)”. Besides, the Chemical peeling ability entry with pig skin is on record as “B (if it decreased by less than 10%, it was evaluated as B)”. Further, the “Ability to eliminate acne bacteria” value in data set [1] was “B (if the viable cell count was 1% or more, it was evaluated as B)”.
On to `CC(O)C(=O)O` (centres unmarked) [Lactic acid], for which, in the data set on pig skin, the Chemical peeling ability result was “A (If the thickness of the stratum corneum decreased by 10% or more, it was evaluated as A)”. Moreover, in [1], the “Ability to eliminate acne bacteria” value is “A (if the viable cell count was less than 1%, it was evaluated as A)”.
Take `CC(C)(O)C(=O)O` [Methyl lactic acid, 2-hydroxyisobutyric acid]: the “melanogenesis-inhibiting effect (melanin production percentage)” value with B16 melanoma [4] is “the same melanogenesis-inhibiting effect as the addition of kojic acid”. Besides, the “cytotoxicity (cell count)” value in the data set with B16 melanoma [5] is “cytotoxicity was not confirmed”. Besides, the “tyrosinase biosynthesis inhibitory action (DOPA-melanin per unit protein)” value in the data set on tyrosinase was “a tyrosinase biosynthesis inhibitory action was exhibited in a dose-dependent manner”. The “tyrosinase protein expression inhibitory action (relative expression level of tyrosinase protein)” value in the data set with tyrosinase protein is reported as “a tyrosinase protein expression inhibitory action was exhibited”. In addition, the “tyrosinase mRNA expression-suppressing action (relative expression level of tyrosinase mRNA)” value with tyrosinase mRNA is reported as “exhibited a tyrosinase mRNA expression-suppressing action”. Moreover, the Solubility in oils entry in data set [2] is listed as “A (if the saturated solubility of oleic acid was 200 ppm or more, it was evaluated as A)”. In addition, the “Solubility in oils and fats” value in data set [3] is recorded as “A (if the saturated solubility of palmitic acid was 20 ppm or more, it was evaluated as A)”. Besides, the Chemical peeling ability result with pig skin was “A (If the thickness of the stratum corneum decreased by 10% or more, it was evaluated as A)”. Also, the “Ability to eliminate acne bacteria” value in data set [1] is recorded as “A (if the viable cell count was less than 1%, it was evaluated as A)”.
